From BindingDB's records for doi:10.1016/j.bmcl.2009.06.075 (Pfizer, 2009) come the findings set out here.

This test is described as follows: Antagonist activity at human P2Y12 receptor assessed as inhibition of ADP-induced platelet-rich plasma aggregation by turbidimetric method.

SMILES strings stand for the structures. Bounds are passed on as bounds.

In the case of `CC(C)OC(=O)N1CCN(C(=O)[C@H](CCC(=O)O)NC(=O)c2cc(OCCO)cc(-c3ccccc3)n2)CC1` [(S)-4-(4-(2-hydroxyethoxy)-6-phenylpicolinamido)-5-(4-(isopropoxycarbonyl)piperazin-1-yl)-5-oxopentanoic acid], the IC50 (in general, the concentration that inhibits the measured activity by half) is 25.6 µM.
The same measure for `CCOC(=O)N1CCN(C(=O)[C@H](CCC(=O)O)NC(=O)c2cc(OCCCN)cc(-c3ccccc3)n2)CC1` [(S)-4-(4-(3-aminopropoxy)-6-phenylpicolinamido)-5-(4-(ethoxycarbonyl)piperazin-1-yl)-5-oxopentanoic acid]: 3.8 µM; for `CCOC(=O)N1CCN(C(=O)[C@H](CCC(=O)O)NC(=O)c2cc(N3CCN(CCN(C)C)CC3)cc(-c3ccccc3)n2)CC1` [(S)-4-(4-(4-(2-(dimethylamino)ethyl)piperazin-1-yl)-6-phenylpicolinamido)-5-(4-(ethoxycarbonyl)piperazin-1-yl)-5-oxopentanoic acid]: 2.3 µM; for `NCC1CCN(c2cc(C(=O)N[C@@H](CCC(=O)O)C(=O)N3CCN(C(=O)OCCC4CCCC4)CC3)nc(-c3ccccc3)c2)CC1` [(S)-4-(4-(4-(aminomethyl)piperidin-1-yl)-6-phenylpicolinamido)-5-(4-((2-cyclopentylethoxy)carbonyl)piperazin-1-yl)-5-oxopentanoic acid]: 14.1 µM.
On to `CCOC(=O)N1CCN(C(=O)[C@H](CCC(=O)O)NC(=O)c2cc(N3CCC(CN)CC3)cc(-c3ccccc3)n2)CC1` [(S)-4-(4-(4-(aminomethyl)piperidin-1-yl)-6-phenylpicolinamido)-5-(4-(ethoxycarbonyl)piperazin-1-yl)-5-oxopentanoic acid], for which the IC50 is 3.3 µM.
With `CCCCCCOC(=O)N1CCN(C(=O)[C@H](CCC(=O)O)NC(=O)c2cc(N3CCC(CN)CC3)cc(-c3ccccc3)n2)CC1` [(S)-4-(4-(4-(aminomethyl)piperidin-1-yl)-6-phenylpicolinamido)-5-(4-(hexyloxycarbonyl)piperazin-1-yl)-5-oxopentanoic acid], the IC50 turned out to be 1.6 µM.
The same measure for `CCOC(=O)N1CCN(C(=O)[C@H](CCC(=O)O)NC(=O)c2cc(N3CCC(N)CC3)cc(-c3ccccc3)n2)CC1` [(S)-4-(4-(4-aminopiperidin-1-yl)-6-phenylpicolinamido)-5-(4-(ethoxycarbonyl)piperazin-1-yl)-5-oxopentanoic acid]: 2.8 µM; for `CCCCCOC(=O)N1CCN(C(=O)[C@H](CCC(=O)O)NC(=O)c2cc(N3CCC(O)CC3)cc(-c3ccccc3)n2)CC1` [(S)-4-(4-(4-hydroxypiperidin-1-yl)-6-phenylpicolinamido)-5-oxo-5-(4-(pentyloxycarbonyl)piperazin-1-yl)pentanoic acid]: 2.4 µM; for `CCOC(=O)N1CCN(C(=O)[C@H](CCC(=O)O)NC(=O)c2cc(NCc3ccccc3)cc(-c3ccccc3)n2)CC1` [(S)-4-(4-(benzylamino)-6-phenylpicolinamido)-5-(4-(ethoxycarbonyl)piperazin-1-yl)-5-oxopentanoic acid]: 81 µM.
The same measure for `CCOC(=O)N1CCN(C(=O)[C@H](CCC(=O)O)NC(=O)c2cc(OCc3ccccc3)cc(-c3ccccc3)n2)CC1` [(S)-4-(4-(benzyloxy)-6-phenylpicolinamido)-5-(4-(ethoxycarbonyl)piperazin-1-yl)-5-oxopentanoic acid]: 31 µM; for `CCOC(=O)N1CCN(C(=O)[C@H](CCC(=O)O)NC(=O)c2cc(N(CC)CC)cc(-c3ccccc3)n2)CC1` [(S)-4-(4-(diethylamino)-6-phenylpicolinamido)-5-(4-(ethoxycarbonyl)piperazin-1-yl)-5-oxopentanoic acid]: over 100 µM.
Turning to `CCCCCCOC(=O)N1CCN(C(=O)[C@H](CCC(=O)O)NC(=O)c2cc(N(C)CCS(C)(=O)=O)cc(-c3ccccc3)n2)CC1` [(S)-4-(4-(methyl(2-(methylsulfonyl)ethyl)amino)-6-phenylpicolinamido)-5-oxo-5-(4-(hexyloxycarbonyl)piperazin-1-yl)pentanoic acid], the IC50 is 17.7 µM.
The same measure for `CCCCCOC(=O)N1CCN(C(=O)[C@H](CCC(=O)O)NC(=O)c2cc(N(C)CCS(C)(=O)=O)cc(-c3ccccc3)n2)CC1` [(S)-4-(4-(methyl(2-(methylsulfonyl)ethyl)amino)-6-phenylpicolinamido)-5-oxo-5-(4-(pentyloxycarbonyl)piperazin-1-yl)pentanoic acid]: 4.1 µM; for `O=C(O)CC[C@H](NC(=O)c1cc(N2CCC(O)CC2)cc(-c2ccccc2)n1)C(=O)N1CCN(C(=O)OCCC2CCCC2)CC1` [(S)-5-(4-((2-cyclopentylethoxy)carbonyl)piperazin-1-yl)-4-(4-(4-hydroxypiperidin-1-yl)-6-phenylpicolinamido)-5-oxopentanoic acid]: 57.8 µM; for `CN(CCS(C)(=O)=O)c1cc(C(=O)N[C@@H](CCC(=O)O)C(=O)N2CCN(C(=O)OCCC3CCCC3)CC2)nc(-c2ccccc2)c1` [(S)-5-(4-((2-cyclopentylethoxy)carbonyl)piperazin-1-yl)-4-(4-(methyl(2-(methylsulfonyl)ethyl)amino)-6-phenylpicolinamido)-5-oxopentanoic acid]: 17.5 µM.
Take `C=CCOC(=O)N1CCN(C(=O)[C@H](CCC(=O)O)NC(=O)c2cc(OCCO)cc(-c3ccccc3)n2)CC1` [(S)-5-(4-(allyloxycarbonyl)piperazin-1-yl)-4-(4-(2-hydroxyethoxy)-6-phenylpicolinamido)-5-oxopentanoic acid]: the IC50 turned out to be 11.1 µM.
Consider `C=CCOC(=O)N1CCN(C(=O)[C@H](CCC(=O)O)NC(=O)c2cc(OCCOC)cc(-c3ccccc3)n2)CC1` [(S)-5-(4-(allyloxycarbonyl)piperazin-1-yl)-4-(4-(2-methoxyethoxy)-6-phenylpicolinamido)-5-oxopentanoic acid], for which the IC50 turned out to be 13.3 µM.
The value for `C=CCOC(=O)N1CCN(C(=O)[C@H](CCC(=O)O)NC(=O)c2cc(OCCCC)cc(-c3ccccc3)n2)CC1` [(S)-5-(4-(allyloxycarbonyl)piperazin-1-yl)-4-(4-butoxy-6-phenylpicolinamido)-5-oxopentanoic acid] was 61.7 µM; that for `C=CCOC(=O)N1CCN(C(=O)[C@H](CCC(=O)O)NC(=O)c2cc(OC3CCNCC3)cc(-c3ccccc3)n2)CC1` [(S)-5-(4-(allyloxycarbonyl)piperazin-1-yl)-5-oxo-4-(6-phenyl-4-(piperidin-4-yloxy)picolinamido)pentanoic acid] was 9.4 µM; that for `CCCCOC(=O)N1CCN(C(=O)[C@H](CCC(=O)O)NC(=O)c2cc(OCCO)cc(-c3ccccc3)n2)CC1` [(S)-5-(4-(butoxycarbonyl)piperazin-1-yl)-4-(4-(2-hydroxyethoxy)-6-phenylpicolinamido)-5-oxopentanoic acid] was 7.8 µM.
For the molecule `CCCCOC(=O)N1CCN(C(=O)[C@H](CCC(=O)O)NC(=O)c2cc(OC3CCNCC3)cc(-c3ccccc3)n2)CC1` [(S)-5-(4-(butoxycarbonyl)piperazin-1-yl)-5-oxo-4-(6-phenyl-4-(piperidin-4-yloxy)picolinamido)pentanoic acid], the IC50 is 1.1 µM.
In the case of `CCCCOC(=O)N1CCN(C(=O)[C@H](CCC(=O)O)NC(=O)c2cccc(-c3ccccc3)n2)CC1` [(S)-5-(4-(butoxycarbonyl)piperazin-1-yl)-5-oxo-4-(6-phenylpicolinamido)pentanoic acid], the 50% inhibitory concentration (IC50) came to 28 µM.
